Test results as given in patent publication US20240092799A1, “MNK INHIBITORS” (Hepagene Therapeutics (HK) Limited, priority 2020, published 2024).
pIC50: −log10 of the molar value.

Experiments:
MNK2 = MNK2 (Homo sapiens (Human), UniProt Q9HBH9); experiment: MNK Biochemical Enzymatic Assay (ADP-Glo), MNK2 binding assay
Method in brief: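 Human MNK1 or MNK2 was preincubated with a 10-point, 1:3 serial dilution of compound for 15 min at 25 °C. Substrate was then added and the reaction ran 60 min at 25 °C. ADP formed was read by ADP-Glo luminescence, and IC50 came from non-linear regression.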

TMD-8 cell p-IF4E = experiment: p-eIF4E Signaling Cellular Assay (CisBio HTRF) in TMD-8 cells; format: cell-based; settings: Homo sapiens, TMD8, 40 min, 40 min treatment
Procedure: p-eIF4E Signaling Cellular Assay. Phosphorylated eIF4E is assayed using the CisBio p-Eif4E HTRF assay kit. Reagents and equipment used in the assay are listed below, followed by the protocol.
Cell medium: RPMI 1640+10% FBS+1*PS, TMD-8 were cultured as recommended and assayed in exponential growth phase. • a) Plate 30 μL of cells in 384 white assay plate in appropriate medium and proper cell density (20 k/well) based on Optimization at 37° C. under 5% CO2 atmosphere • b) Dispense 90 nL of compounds diluted in DMSO and treat for 40 min at 37° C. under 5% CO2 atmosphere • c) Remove cell supernatant by flicking the plate • d) Add 16 μL of supplemented lysis buffer (1×) for 30 minutes at RT under shaking • e) Add 4 μL of premixed antibody solutions prepared in the detection buffer. Cover the plate with a plate sealer. Incubate 0/N at RT • f) Read the fluorescence emission at 665 nm and 620 nm on Envision • g) Data analysis • (1) Ratio […] signal is calculated for each well • (2) % Inhibition is calculated as follow:
% inhibition=100−(Signalcmpd-SignalAve_PC)/(SignalAve_VC-SignalAve_PC)×100. • (3) Calculate IC50 and Plot effect-dose curve of cmpds:
Calculate IC50 by fitting % Inhibition values and log of compound concentrations to nonlinear regression (dose response−variable slope) with Graphpad 8.0.
Y=Bottom+(Top−Bottom)/(1+10^((Log IC50−X)*Hill Slope)) • X: log of Inhibitor concentration; Y: % Inhibition.

Chain of MNK2 (Q9HBH9 whole entry): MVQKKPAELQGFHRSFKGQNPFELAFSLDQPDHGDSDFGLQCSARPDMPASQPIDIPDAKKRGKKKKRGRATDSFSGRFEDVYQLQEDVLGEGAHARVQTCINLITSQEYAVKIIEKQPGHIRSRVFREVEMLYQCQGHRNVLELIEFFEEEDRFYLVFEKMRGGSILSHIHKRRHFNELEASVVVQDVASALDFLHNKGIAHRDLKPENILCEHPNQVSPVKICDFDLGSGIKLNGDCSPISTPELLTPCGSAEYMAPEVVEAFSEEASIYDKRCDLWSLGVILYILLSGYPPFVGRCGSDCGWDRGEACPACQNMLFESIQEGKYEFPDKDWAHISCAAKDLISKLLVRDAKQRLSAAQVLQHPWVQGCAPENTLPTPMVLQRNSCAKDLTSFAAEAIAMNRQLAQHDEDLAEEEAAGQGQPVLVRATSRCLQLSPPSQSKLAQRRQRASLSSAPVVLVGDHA

pIC50 (MNK2) | pIC50 (TMD-8 cell p-IF4E) | SMILES
8.00 to 10.00 | 8.00 to 10.00 | Cc1cc(Nc2cc(Nc3ccn(CCO)n3)ncn2)[n+]([O-])c2c1C(=O)NC21CCCCC1 [Compound XXIX-AT, 2′-((6-((1-(2-hydroxyethyl)-1H-pyrazol-3-yl)amino)pyrimidin-4-yl)amino)-4′-methyl-5′-oxo-5′,6′-dihydrospiro[cyclohexane-1,7′-pyrrolo[3,4-b]pyridine] 1′-oxide]
8.00 to 10.00 | 8.00 to 10.00 | Cc1cc(Nc2cc(Nc3cc[nH]n3)ncn2)[n+]([O-])c2c1C(=O)NC21CCCCC1 [Compound XXIX-AS, 2′-((6-((1H-pyrazol-3-yl)amino)pyrimidin-4-yl)amino)-4′-methyl-5′-oxo-5′,6′-dihydrospiro[cyclohexane-1,7′-pyrrolo[3,4-b]pyridine] 1′-oxide]
8.00 to 10.00 | 7.00 to 8.00 | CN1CCN(c2ccc(Nc3cc(Nc4cc5c(s4)C(=O)NC54CCCCC4)ncn3)nc2)CC1 [Compound XXIII-T, 2′-((6-((5-(4-methylpiperazin-1-yl)pyridin-2-yl)amino)pyrimidin-4-yl)amino)spiro[cyclohexane-1,4′-thieno[2,3-c]pyrrol]-6′(5′H)-one]
8.00 to 10.00 | 7.00 to 8.00 | Cc1cc2c(Nc3cc4c(s3)C(=O)NC43CCCCC3)ncnc2[nH]1 [Compound XVII-C, 2′-((6-methyl-7H-pyrrolo[2,3-d]pyrimidin-4-yl)amino)spiro[cyclohexane-1,4′-thieno[2,3-c]pyrrol]-6′(5′H)-one]
8.00 to 10.00 | 7.00 to 8.00 | O=C1NC2(CCCCC2)c2cc(Nc3ccnc(N[C@H]4CCOC4)c3)sc21 [Compound XXIV-B, (S)-2′-((2-((tetrahydrofuran-3-yl)amino)pyridin-4-yl)amino)spiro[cyclohexane-1,4′-thieno[2,3-c]pyrrol]-6′(5′H)-one]
8.00 to 10.00 | 8.00 to 10.00 | Cc1cc(Nc2cc(Nc3ccc(N4CCN(C)CC4)cn3)ncn2)[n+]([O-])c2c1C(=O)NC21CCCCC1 [Compound XXIX-AO, 4′-methyl-2′-[(6-{[5-(4-methylpiperazin-1-yl)pyridin-2-yl]amino}pyrimidin-4-yl)amino]-5′-oxo-5′,6′-dihydrospiro[cyclohexane-1,7′-pyrrolo[3,4-b]pyridin]-1′-ium-1′-olate]
8.00 to 10.00 | 8.00 to 10.00 | Cc1cc(Nc2cc(N[C@H]3CCOC3)ncn2)[n+]([O-])c2c1C(=O)NC21CCCCC1 [Compound XXIX-A, (S)-4′-methyl-5′-oxo-2′-((6-((tetrahydrofuran-3-yl)amino)pyrimidin-4-yl)amino)-5′,6′-dihydrospiro[cyclohexane-1,7′-pyrrolo[3,4-b]pyridine] 1′-oxide]
8.00 to 10.00 | 8.00 to 10.00 | Cc1cc(Nc2cc(Nc3ccn(C)n3)ncn2)[n+]([O-])c2c1C(=O)NC21CCCCC1 [Compound XXIX-K, 4′-methyl-2′-((6-((1-methyl-1H-pyrazol-3-yl)amino)pyrimidin-4-yl)amino)-5′-oxo-5′,6′-dihydrospiro[cyclohexane-1,7′-pyrrolo[3,4-b]pyridine] 1′-oxide]
8.00 to 10.00 | 7.00 to 8.00 | COc1c(N)ncnc1Nc1nc2c(s1)C(=O)NC21CCCCC1 [Compound XXVIII-G, 2′-((6-amino-5-methoxypyrimidin-4-yl)amino)spiro[cyclohexane-1,4′-pyrrolo[3,4-d]thiazol]-6′(5′H)-one]
8.00 to 10.00 | 7.00 to 8.00 | O=C1NC2(CCCCC2)c2nc(Nc3cc(NC(=O)C4CCCC4)ncn3)sc21 [Compound XXVIII-C, N-(6-((6′-oxo-5′,6′-dihydrospiro[cyclohexane-1,4′-pyrrolo[3,4-d]thiazol]-2′-yl)amino)pyrimidin-4-yl)cyclopentanecarboxamide]
7.00 to 8.00 | – | CNc1cc(Nc2cc3c(s2)C(=O)NC32CCCCC2)ncn1 [Compound XXIII, 2′-((6-(Methylamino)pyrimidin-4-yl)amino)spiro[cyclohexane-1,4′-thieno[2,3-c]pyrrol]-6′(5′H)-one]
8.00 to 10.00 | – | Cc1cc(Nc2ncnc3[nH]ccc23)[n+]([O-])c2c1C(=O)NC21CCCCC1 [Compound XXIX-F, 2′-((7H-pyrrolo[2,3-d]pyrimidin-4-yl)amino)-4′-methyl-5′-oxo-5′,6′-dihydrospiro[cyclohexane-1,7′-pyrrolo[3,4-b]pyridine] 1′-oxide]
6.00 to 7.00 | – | Cc1cc(Nc2cc(NC3CCOCC3)ncn2)[n+]([O-])c2c1C(=O)NC21CCCCC1 [Compound XXIX-R, 4′-methyl-5′-oxo-2′-((6-((tetrahydro-2H-pyran-4-yl)amino)pyrimidin-4-yl)amino)-5′,6′-dihydrospiro[cyclohexane-1,7′-pyrrolo[3,4-b]pyridine] 1′-oxide]
7.00 to 8.00 | – | O=C1NC2(CCCCC2)c2cc(Nc3cc(NC4CCCCC4)ncn3)sc21 [Compound XXIV-J, 2′-((6-(cyclohexylamino)pyrimidin-4-yl)amino)spiro[cyclohexane-1,4′-thieno[2,3-c]pyrrol]-6′(5′H)-one]
8.00 to 10.00 | – | Cc1cc(Nc2cc(NC(=O)C3CCCC3)ncn2)[n+]([O-])c2c1C(=O)NC21CCCCC1 [Compound XXIX-G, 2′-((6-(cyclopentanecarboxamido)pyrimidin-4-yl)amino)-4′-methyl-5′-oxo-5′,6′-dihydrospiro[cyclohexane-1,7′-pyrrolo[3,4-b]pyridine] 1′-oxide]
6.00 to 7.00 | – | O=C1NC2(CCCCC2)c2cc(Nc3cc(NC4CCNC4)ncn3)sc21 (centres unmarked) [Compound XXIII-R, 2′-((6-(pyrrolidin-3-ylamino)pyrimidin-4-yl)amino)spiro[cyclohexane-1,4′-thieno[2,3-c]pyrrol]-6′(5′H)-one]
6.00 to 7.00 | – | Cc1cc(Nc2cc(NC3=NC(C)(C)CO3)ncn2)[n+]([O-])c2c1C(=O)NC21CCCCC1 [Compound XXIX-M, 2′-((6-((4,4-dimethyl-4,5-dihydrooxazol-2-yl)amino)pyrimidin-4-yl)amino)-4′-methyl-5′-oxo-5′,6′-dihydrospiro[cyclohexane-1,7′-pyrrolo[3,4-b]pyridine] 1′-oxide]
6.00 to 7.00 | – | CCOC(=O)C1CCc2c(sc3ncnc(Nc4cc5c(s4)C(=O)NC54CCCCC4)c23)C1 (centres unmarked) [Compound XXV-5, Ethyl 4-((6′-oxo-5′,6′-dihydrospiro[cyclohexane-1,4′-thieno[2,3-c]pyrrol]-2′-yl)amino)-5,6,7,8-tetrahydrobenzo[4,5]thieno[2,3-d]pyrimidine-7-carboxylate]
7.00 to 8.00 | – | Cc1cc(Nc2cc(Nc3ccccc3F)ncn2)[n+]([O-])c2c1C(=O)NC21CCCCC1 [Compound XXIX-AI, 2′-((6-((2-fluorophenyl)amino)pyrimidin-4-yl)amino)-4′-methyl-5′-oxo-5′,6′-dihydrospiro[cyclohexane-1,7′-pyrrolo[3,4-b]pyridine] 1′-oxide]
< 6.00 | – | O=C1NC2(CCCCC2)c2cc(Nc3cc(N4CCC(F)(F)CC4)ncn3)sc21 [Compound XXIII-L, 2′-((6-(4,4-Difluoropiperidin-1-yl)pyrimidin-4-yl)amino)spiro[cyclohexane-1,4′-thieno[2,3-c]pyrrol]-6′(5′H)-one]
< 6.00 | – | O=C1NC2(CCCCC2)c2cc(Nc3cc(N4CCCCC4)ncn3)sc21 [Compound XXIII-E, 2′-((6-(Piperidin-1-yl)pyrimidin-4-yl)amino)spiro[cyclohexane-1,4′-thieno[2,3-c]pyrrol]-6′(5′H)-one]
6.00 to 7.00 | – | Cc1nc(Nc2ccccn2)cc(Nc2cc(C)c3c([n+]2[O-])C2(CCCCC2)NC3=O)n1 [Compound XXIX-AAB, 4′-methyl-2′-((2-methyl-6-(pyridin-2-ylamino)pyrimidin-4-yl)amino)-5′-oxo-5′,6′-dihydrospiro[cyclohexane-1,7′-pyrrolo[3,4-b]pyridine] 1′-oxide]
7.00 to 8.00 | – | CN(C)C(=O)C1CCc2c(sc3ncnc(Nc4cc5c(s4)C(=O)NC54CCCCC4)c23)C1 (centres unmarked) [Compound XXV-B, N,N-Dimethyl-4-((6′-oxo-5′,6′-dihydrospiro[cyclohexane-1,4′-thieno[2,3-c]pyrrol]-2′-yl)amino)-5,6,7,8-tetrahydrobenzo[4,5]thieno[2,3-d]pyrimidine-7-carboxamide]
7.00 to 8.00 | – | Cc1cc(Nc2cc(NCC3CCOC3)ncn2)[n+]([O-])c2c1C(=O)NC21CCCCC1 (centres unmarked) [Compound XXIX-AV, 4′-methyl-5′-oxo-2′-((6-(((tetrahydrofuran-3-yl)methyl)amino)pyrimidin-4-yl)amino)-5′,6′-dihydrospiro[cyclohexane-1,7′-pyrrolo[3,4-b]pyridine] 1′-oxide]
8.00 to 10.00 | – | Cc1cc(Nc2cc(Nc3ccc(C4=CCOCC4)cn3)ncn2)[n+]([O-])c2c1C(=O)NC21CCCCC1 [Compound XXIX-AAS, 2′-((6-((5-(3,6-dihydro-2H-pyran-4-yl)pyridin-2-yl)amino)pyrimidin-4-yl)amino)-4′-methyl-5′-oxo-5′,6′-dihydrospiro[cyclohexane-1,7′-pyrrolo[3,4-b]pyridine] 1′-oxide]
